Results from patent US5380755A, “Alkyl and alkylbenzyl ethers of substituted hydroquinones” (The Du Pont Merck Pharmaceutical Company, priority 1992, dated 1995).

Tests used:
MAO B = molecular target: T1, MAO B (Rattus norvegicus, UniProt P19643); assay: in vitro inhibitory action on type B monoamine oxidase in rat brain tissue (J. Neurochem., 1983, 40, 1534); assay type: biochemical; details: 200 mM Phenethylamine[14-C] as substrate
T1 construct: two types A and B monoamine oxidase in rat brain tissue; from tissue; host or cells: rat brain
T1 sequence (P19643 1-520): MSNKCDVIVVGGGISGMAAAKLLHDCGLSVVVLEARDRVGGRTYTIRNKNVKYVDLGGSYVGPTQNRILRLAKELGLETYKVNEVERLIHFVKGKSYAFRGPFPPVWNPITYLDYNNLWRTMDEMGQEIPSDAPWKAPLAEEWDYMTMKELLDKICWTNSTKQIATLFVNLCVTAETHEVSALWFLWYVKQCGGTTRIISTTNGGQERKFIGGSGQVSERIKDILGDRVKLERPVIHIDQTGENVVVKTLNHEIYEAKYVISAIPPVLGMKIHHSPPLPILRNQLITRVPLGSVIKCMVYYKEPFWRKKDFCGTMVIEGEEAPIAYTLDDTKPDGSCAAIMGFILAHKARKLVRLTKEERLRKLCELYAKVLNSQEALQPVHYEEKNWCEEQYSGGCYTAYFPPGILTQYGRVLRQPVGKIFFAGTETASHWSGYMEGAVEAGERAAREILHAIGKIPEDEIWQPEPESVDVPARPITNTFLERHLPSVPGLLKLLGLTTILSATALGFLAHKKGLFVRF
From the text: This test measures the in vitro inhibitory action of the two types A and B monoamine oxidase in rat brain tissue.

MAO A / MAO B = assay: in vitro inhibitory action on types A and B monoamine oxidase in rat brain tissue: A/B selectivity; assay type: biochemical; details: ratio MAO A / MAO B, 5-Hydroxytryptamine[14-C] 1.0 mM (MAO A), Phenethylamine[14-C] 200 mM (MAO B)
From the text: The compounds of the present invention are useful in the inhibition of monoamine oxidases. […] This test measures the in vitro inhibitory action of the two types A and B monoamine oxidase in rat brain tissue. […] Finally, it is expected that the compounds of the present invention may be useful in treating neurological disorders including memory disorders, cognitive dysfunction, dementia, dementia of the Alzheimer's type, Parkinson's syndrome, depression, hyperactive syndrome, schizophrenia, and changes in temperament.

SMILES	IC50 (MAO B) [nM]	A/B (MAO A / MAO B)
CC(=O)c1cc(OCc2cc(C(F)(F)F)cc(C(F)(F)F)c2)ccc1OCCCC#N [Example 6, 4-{2'-Acetyl-4'-[(3,5-trifluoromethylphenyl)methyloxy]phenoxy}-butyronitrile]	100	> 10000
C#CCN(C)C(C)COc1ccc(OCc2cccc(Cl)c2)c(C(C)=O)c1 (centres unmarked) [Example 8, N-2-[3'-Acyl-4'-(m-chlorophenylmethyloxy)phenoxy]-1-methylethyl-N-methylpropargylamine]	3	< 300
CNC(C)COc1ccc(OCc2cccc(Cl)c2)c(C(C)=O)c1 (centres unmarked) [Example 19]	7000	
CC(=O)c1cc(OCc2cccc(Cl)c2)ccc1OCCCO [Example 32]	100	400
CCC(=O)c1cc(OCc2ccc(F)cc2)ccc1OCCCC#N [Example 33]	> 100000	
